How the values were obtained:
β-galactosidase LacZ = assay: Activity of β-galactosidase LacZ by Miller's method; type: cell-based, E. coli; conditions: strain B7; +IPTG, 1 mM; middle-logarithmic phase, M9:LB (9:1) with glucose 0.4%
Method: For the measurement of β-galactosidase activity, the strains were grown to the middle-logarithmic phase in M9:LB (9:1, v/v) medium supplemented with glucose (0.4%, w/v). The medium for the strains having ilvAYC deletion and AHAS-deficient strains was additionally supplemented with Ile (25 mg/1) and Val (25 mg/1). Activity of β-galactosidase was measured according to Miller's method (Miller J. H. (1972) Experiments in molecular genetics. Cold Spring Harbor Laboratory, Cold Spring Harbor). The data presented in Table 2 indicate that expression level of the reporter lacZ gene under PilvC promoter varies within the range of more than two orders of magnitude depending on the genetic background. The maximal expression level was provided by the E. coli strains modified to overexpress L-valine resistant AHAS I (the product of the ilvBN4 genes) or/and containing inactivated the isomeroreductase IlvC encoding gene (ilvC).

AHAS I = biological target: T1, AHAS I (Escherichia coli, UniProt P08142+P0ADF8, N17K); assay: Activity of AHAS I in crude cell extracts with or without addition of 10 mM L-Val; type: biochemical, E. coli
T1 construct: expressed in transfected cells; host or cells: E. coli K12 B7 (VKPM B-7) ΔilvGM ΔilvIH with a chromosomal ilvBN4 operon under PilvC (or PL); crude cell extracts
Method: Cells were grown to the middle-logarithmic phase in M9:LB (9:1, v/v) medium supplemented with glucose (0.4%, w/v). Activity of AHAS I in crude cells extracts was measured with or without addition of 10 mM L-Val according to the assay described in Stormer F. and Umbarger H., Biochem. Biophys. Res. Commun., 1964, 17(5):587-592.

T1 sequence (P08142 whole entry): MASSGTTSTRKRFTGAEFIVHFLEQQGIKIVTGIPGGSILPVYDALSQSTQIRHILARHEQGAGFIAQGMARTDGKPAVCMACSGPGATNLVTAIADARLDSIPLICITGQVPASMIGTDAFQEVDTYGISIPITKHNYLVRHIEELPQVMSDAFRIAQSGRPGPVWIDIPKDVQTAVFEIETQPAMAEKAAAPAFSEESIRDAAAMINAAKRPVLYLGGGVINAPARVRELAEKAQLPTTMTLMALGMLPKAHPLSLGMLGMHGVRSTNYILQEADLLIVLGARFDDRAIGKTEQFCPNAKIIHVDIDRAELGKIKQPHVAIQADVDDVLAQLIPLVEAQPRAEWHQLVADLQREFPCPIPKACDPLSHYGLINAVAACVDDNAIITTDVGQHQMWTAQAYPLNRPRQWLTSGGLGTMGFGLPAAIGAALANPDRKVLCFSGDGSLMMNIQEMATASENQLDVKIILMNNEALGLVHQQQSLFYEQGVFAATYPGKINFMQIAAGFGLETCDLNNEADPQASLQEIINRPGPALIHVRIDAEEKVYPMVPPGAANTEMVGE
T1 sequence (P0ADF8 whole entry N17K): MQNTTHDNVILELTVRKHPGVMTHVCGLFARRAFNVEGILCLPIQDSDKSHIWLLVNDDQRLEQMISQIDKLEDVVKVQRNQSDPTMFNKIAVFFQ

Row | SMILES | Specific activity of β-galactosidase (β-galactosidase LacZ) [Miller's units] | AHAS I activity with L-Val, 10 mM (percent of value, measured without L-Val addition) (AHAS I; crude extract of strain B7 ΔilvGM ΔilvIH PL-ilvBN4 (control)) [%] | AHAS I activity with L-Val, 10 mM (AHAS I; crude extract of strain B7 ΔilvGM ΔilvIH PL-ilvBN4 (control), mean of triplicate) [nmol/min/mg] | AHAS I activity with L-Val, 10 mM (percent of value, measured without L-Val addition) (AHAS I; crude extract of strain B7 ΔilvGM ΔilvIH cat-ilvY-PilvC-ilvBN4 cl.1) [%] | AHAS I activity with L-Val, 10 mM (AHAS I; crude extract of strain B7 ΔilvGM ΔilvIH cat-ilvY-PilvC-ilvBN4 cl.1, mean of triplicate) [nmol/min/mg] | AHAS I activity with L-Val, 10 mM (percent of value, measured without L-Val addition) (AHAS I; crude extract of strain B7 ΔilvGM ΔilvIH cat-ilvY-PilvC-ilvBN4 cl.4) [%] | AHAS I activity with L-Val, 10 mM (AHAS I; crude extract of strain B7 ΔilvGM ΔilvIH cat-ilvY-PilvC-ilvBN4 cl.4, mean of triplicate) [nmol/min/mg]
1 | CC(C)S[C@@H]1O[C@H](CO)[C@H](O)[C@H](O)[C@H]1O [IPTG] | 1200 | – | – | – | – | – | –
2 | CC(C)[C@H](N)C(=O)O [L-Val, L-valine] | – | 86 | 51 | 88 | 80 | 88 | 106

Reference: patent US9574216B2, “Auto-indicible expression system, and the use thereof for producing useful metabolites using a bacterium of the family enterobacteriaceae” (priority 2012, dated 2017)
